# Tested on: Mycobacterium tuberculosis
# Assay: Antimycobacterial activity against rifampin and isoniazid resistant-Mycobacterium tuberculosis Beijing harboring Ser 531 to Leu 315 and Ser to Thr in rpoB and katG genes mutation after 24 hrs by microbroth dilution method
# Assay type: functional
row,Compound,MIC [µM]
1,Fc1ccccc1-c1cncnc1,71.76
2,Fc1ccc(-c2cncnc2)cc1,71.76
3,c1ccc(-c2cncnc2-c2ccco2)cc1,1.57
4,FC(F)(F)c1ccc(-c2cncnc2-c2cccs2)cc1,40.81
5,FC(F)(F)c1cccc(-c2cncnc2-c2ccco2)c1,43.07
6,FC(F)(F)c1ccc(-c2cncnc2-c2cccs2)c(C(F)(F)F)c1,16.56
7,FC(F)(F)c1cc(-c2cncnc2-c2ccco2)cc(C(F)(F)F)c1,8.65
8,Fc1ccc(-c2cncnc2-c2ccco2)c(F)c1,48.41
9,Fc1cccc(-c2cncnc2)c1,35.88
10,FC(F)(F)c1ccc(-c2cncnc2)c(C(F)(F)F)c1,42.78
11,Fc1cc(F)cc(-c2cncnc2-c2cccs2)c1,45.57
12,FC(F)(F)c1ccccc1-c1cncnc1-c1ccco1,43.07
13,FC(F)(F)c1ccc(-c2cncnc2-c2ccco2)cc1,43.07
14,Fc1ccc(-c2cncnc2-c2ccco2)cc1,52.03
15,c1ccc(-c2cncnc2-c2cccs2)cc1,26.02
16,Fc1ccccc1-c1cncnc1-c1ccco1,52.03
17,FC(F)(F)c1ccccc1-c1cncnc1,27.66

row,Compound,MIC [µM]
1,FC(F)(F)c1ccc(-c2cncnc2)cc1,55.76
2,Fc1cccc(-c2cncnc2-c2ccco2)c1,6.24
3,FC(F)(F)c1cccc(-c2cncnc2)c1,55.76
4,CC1COc2c(N3CCN(C)CC3)c(F)cc3c(=O)c(C(=O)O)cn1c23 (centres undefined) [OFLOXACIN],0.28
5,FC(F)(F)c1cc(-c2cncnc2-c2cccs2)cc(C(F)(F)F)c1,33.39
6,c1ccc(-c2cncnc2)cc1,80.03
7,Fc1ccccc1-c1cncnc1-c1cccs1,12.5
8,Fc1cc(F)cc(-c2cncnc2-c2ccco2)c1,24.01
9,FC(F)(F)c1ccc(-c2cncnc2-c2ccco2)c(C(F)(F)F)c1,1.95
10,Fc1cc(F)cc(-c2cncnc2)c1,3.64
11,FC(F)(F)c1cc(-c2cncnc2)cc(C(F)(F)F)c1,5.13
12,Fc1ccc(-c2cncnc2-c2cccs2)c(F)c1,45.57
13,FC(F)(F)c1cccc(-c2cncnc2-c2cccs2)c1,4.9
14,FC(F)(F)c1ccccc1-c1cncnc1-c1cccs1,20.24
15,Fc1ccc(-c2cncnc2-c2cccs2)cc1,12.5
16,Fc1cccc(-c2cncnc2-c2cccs2)c1,12.5
17,Fc1ccc(-c2cncnc2)c(F)c1,16.13
